Data from a compilation of properties of binary mixtures (doi:10.1016/j.molliq.2014.10.017).

Experiment: xn = mol fraction of the nth substance listed
Conditions: 101 kPa

CCCC[n+]1ccn(C)c1.N#C[S-] + CC#N
speed of sound [m/s]
Conditions | 293.15 K | 298.15 K | 303.15 K | 308.15 K | 313.15 K
x2 = 0 | 1778.8 | 1767.2 | 1755.4 | 1743.7 | 1732.1
x2 = 0.0984 | 1764.8 | 1752.9 | 1740.8 | 1728.9 | 1717
x2 = 0.1936 | 1749.3 | – | 1724.7 | 1712.5 | 1700.3
x2 = 0.3061 | – | 1714.1 | 1701.4 | 1688.7 | 1676.1
x2 = 0.4068 | 1701.6 | 1688.5 | 1675.3 | 1662.1 | 1649
x2 = 0.4899 | – | 1662.5 | 1648.8 | 1635.2 | 1621.7
x2 = 0.5994 | 1633.3 | 1618.7 | 1604.2 | 1589.7 | 1575.4
x2 = 0.6925 | 1586.2 | 1571.2 | – | 1540.8 | 1525.7
x2 = 0.7988 | – | 1498.6 | – | 1465.7 | 1449.4
x2 = 0.8971 | 1426.5 | 1408.9 | 1391 | 1373.1 | 1355.2
x2 = 0.9465 | 1372.3 | 1353.6 | 1334.8 | 1316 | 1297.2

CCOS(=O)(=O)[O-].CC[n+]1ccn(C)c1 + CC#N
speed of sound [m/s]
Conditions | 293.15 K | 298.15 K | 303.15 K | 308.15 K | 313.15 K
x2 = 0 | 1693.1 | 1680.8 | 1668.5 | – | 1644.4
x2 = 0.0934 | – | 1670.3 | – | – | 1633.5
x2 = 0.1936 | 1667 | 1654.5 | 1641.9 | 1629.3 | 1616.8
x2 = 0.2906 | 1649.5 | 1639.7 | 1623.8 | 1610.9 | 1598.1
x2 = 0.397 | 1626.4 | 1613.3 | 1599.9 | 1586.6 | 1573.5
x2 = 0.4967 | 1592.4 | 1578.7 | 1564.7 | 1550.8 | 1537
x2 = 0.5938 | – | 1552.3 | – | 1523.5 | –
x2 = 0.7001 | – | – | – | 1474.1 | 1458.9
x2 = 0.7953 | 1464.6 | 1448.5 | 1432.3 | 1416 | 1399.8
x2 = 0.8951 | – | 1373.4 | – | 1337.9 | 1320.2
x2 = 0.9516 | 1343.4 | 1324.8 | – | 1287.1 | 1268.3

CC#N + CCCC[n+]1ccn(C)c1.N#C[S-]
x1 = 1
Conditions | speed of sound [m/s]
303.15 K | 1258.8
313.15 K | 1218.5

CC#N + CCOS(=O)(=O)[O-].CC[n+]1ccn(C)c1
x1 = 1
Conditions | speed of sound [m/s]
293.15 K | 1298.8
298.15 K | 1279
303.15 K | 1258.8
308.15 K | 1238.6
313.15 K | 1218.5
